How the values were obtained:
[1] = test system: AMPKα; test: Measurement of AMPK-activation effect (AMPKα Thr172 phosphorylation immunoassay in MCF7 cells); type: cell-based, human; conditions: 24 hours; for AMPK activation effect 10 uM (%) / AMPK activation effect 50 uM (%): relative to untreated cells
Procedure: MCF7 cells derived from human breast cancer cells (commercially available from the Korean Cell Line Bank) were used, and the AMPK (5′-AMP-activated protein kinase alpha)-activation effect of the biguanide derivative was confirmed using an AMPKα immunoassay kit (Invitrogen, Catalog No. KH00651).
MCF7 cells were cultured in a DMEM medium supplemented with 10% fetal bovine serum. Thereafter, the cultured MCF7 cells were put into a 6-well plate with approximately 5×10^5 cells per well and cultured in an incubator supplied with 5% CO2. Culture media were treated with the derivatives synthesized in the examples at contents of 5, 10 and 50 μM, and then cultured for 24 hours. Metformin hydrochloride was used as the control, and the culture media were treated with 0.05, 0.5, 1, 2, 5 and 10 mM metformin hydrochloride, and then tested in the same manner as described in the derivatives synthesized in the examples. Subsequently, the cells were lysed according to a method presented in the operation manual of the AMPKα immunoassay kit, and 20 μg of a cell lysate was then yielded through protein assay. Thereafter, the AMPK activation effect was obtained by determining the degree of phosphorylation of 172nd threonine residue (Thr172) of the AMPKα from the cell lysate according to the method presented in the operation manual of the AMPKα immunoassay kit. […] A curve graph showing AMPK activation according to the concentration of the treated compounds was plotted based on the obtained AMPKα activation results, the concentration (activation concentration 150, AC150) value of the compound whose AMPK activation reached 150% was calculated using a GraphPad Prism 5.0 program, and the degrees of AMPK activation were obtained when concentrations of the treated biguanide derivatives were 10 μM and 50 μM and the metformin hydrochloride was 50 μM.

[2] = test system: HCT116 cells; test: Measurement of effect of inhibiting cancer cell proliferation (MTT); type: cell-based; conditions: Homo sapiens; for inhibition at 100 µM: HCT-116, 100 uM, 48 hours, read-out: Cell Growth Inhibition (%) at 100 uM; for GI50: HCT-116, 48 hours
Text: HCT116 cells derived from human colorectal cancer (commercially available from the Korean Cell Line Bank) were used, and the effect of inhibiting cancer cell proliferation of the biguanide derivative was confirmed by measuring the concentration value (cell growth inhibition concentration, GIC50) at which cell growth was inhibited by 50% using a 3-(4,5-dimethylthiazol-2-yl)-2,5-[…] bromide (MTT) reagent.
First, HCT116 cells were put on a 96-well plate and cultured in a DMEM medium containing 10% fetal bovine serum for 16 hours so that the cellcount in each well was approximately 5,000. Subsequently, to obtain the GIC50 value of each compound, culture media were treated with 100 μM, 25 μM, 6.25 μM, 1.56 μM or 0.39 μM of the compound, and then cultured for 48 hours. At this time, some of the compounds were treated with 200 μM instead of 100 μM. Metformin hydrochloride was used as the control, and the culture media were treated with 25, 12.5, 2.5, 0.5, 0.1 mM metformin hydrochloride, and then tested in the same manner as described in the derivatives synthesized in the examples. In order to determine whether the cells survived after treatment with the compound, MTT was added to the culture media which were then cultured for another 3 hours. Formed formazane crystals were dissolved using dimethyl sulfoxide (DMSO), and the absorbance of the resulting solution was measured at 560 nm. After the 48-hours culture, the ratio of the cell count cultured on a well plate not treated with the compound to the living cell count on a well plate treated with the compounds synthesized in the examples was indicated as cell viability (%) according to each treated concentration. A cell viability curve graph was plotted and the concentration (GIC50) value of the compound at which the growth was inhibited by 50% was calculated to confirm the effect of inhibition of cancer cell proliferation. Also, the cell growth viability (%) when the concentration of the treated biguanide derivative and the metformin hydrochloride as the control were 100 uM was shown.

| Compound | GI50 [2] [µM] | melting point [°C] | AMPK activation effect 10 uM (%) [1] [%] | AMPK activation effect 50 uM (%) [1] [%] | AC150 (concentration at which AMPK activation reached 150%) [1] [µM] | inhibition at 100 µM [2] [%] |
| --- | --- | --- | --- | --- | --- | --- |
| Cl.N=C(NCc1cccc(C(F)(F)F)c1)NC(=N)N1CCOCC1 [Example 36, N1-morpholine-N5-(3-trifluoromethyl)benzyl biguanide hydrochloride] | > 100 | 211 to 212 | 516 | 656 | >50 | 97.2 |
| Cl.N=C(NCc1ccc(OC(F)(F)F)cc1)NC(=N)N1CCCC1 [Example 41, N1-pyrrolidine-N5-(4-trifluoromethoxy)benzyl biguanide hydrochloride] | 25.6 | 242 to 243 | 242 | 698 | 0.9 | 97.4 |
| Cl.N=C(NCc1ccc(OC(F)(F)F)cc1)NC(=N)N1CCC1 [Example 40, N1-azetidine-N5-(4-trifluoromethoxy)benzyl biguanide hydrochloride] | 36.9 | 182 to 184 | 673 | 1076 | 3.9 | 97.8 |
| Cl.N=C(NC(=N)N1CCCCC1)NC1CCCCCC1 [Example 18, N1-piperidine-N5-cycloheptyl biguanide hydrochloride] | 23.1 | 237 to 238 | 304 | 719 | 2.2 | 64.3 |
| Cl.N=C(NC(=N)N1CCCC1)NC1CCCCCC1 [Example 17, N1-pyrrolidine-N5-cycloheptyl biguanide hydrochloride] | 41 | 265 to 266 | 149 | 612 | 7.9 | 60.8 |
| CNC(=N)NC(=N)N1CCCCC1.Cl [Example 8, N1-piperidine-N5-methyl biguanide hydrochloride] | 88.6 | 211 to 212 | 139 | 500 | 9.0 | 50.5 |
| Cl.N=C(NCc1ccc(Cl)cc1)NC(=N)N1CCCC1 [Example 31, N1-pyrrolidine-N5-(4-chloro)benzyl biguanide hydrochloride] | 17.6 | 250 to 251 | 304 | 776 | 2.3 | 65.9 |

Second part, led by results:

| GI50 [2] [µM] | melting point [°C] | Compound | AMPK activation effect 10 uM (%) [1] [%] | AMPK activation effect 50 uM (%) [1] [%] | AC150 (concentration at which AMPK activation reached 150%) [1] [µM] | inhibition at 100 µM [2] [%] |
| --- | --- | --- | --- | --- | --- | --- |
| 8.2 | 259 to 261 | Cl.N=C(NCc1ccc(Cl)c(C(F)(F)F)c1)NC(=N)N1CCCCC1 [Example 45, N1-piperidine-N5-(4-chloro-3-trifluoromethyl)benzyl biguanide hydrochloride] | 162 | 232 | 1.7 | 96.9 |
| 7.4 | 254 to 256 | Cl.N=C(NCc1ccc(C(F)(F)F)c(Cl)c1)NC(=N)N1CCCCC1 [Example 47, N1-piperidine-N5-(3-chloro-4-trifluoromethyl)benzyl biguanide hydrochloride] | 433 | 384 | 4.4 | 100 |
| 16.2 | 268 to 269 | Cl.N=C(NCc1ccc(OC(F)(F)F)cc1)NC(=N)N1CCCCC1 [Example 42, N1-piperidine-N5-(4-trifluoromethoxy)benzyl biguanide hydrochloride] | 472 | 554 | 0.8 | 96.8 |
| 19.8 | 181 to 183 | Cl.N=C(NCCc1ccc(Cl)cc1)NC(=N)N1CCCCCC1 [Example 61, N1-azepane-N5-((4-chloro)phenethyl)biguanide hydrochloride] | 1130 |  | 0.5 | 94.3 |
| > 100 | 229 to 232 | Cl.N=C(NCc1c(F)cccc1F)NC(=N)N1CCCCC1 [Example 51, N1-piperidine-N5-(2,6-difluoro)benzyl biguanide hydrochloride] | 179 |  | 2.1 | 96.8 |

— US9321742B2, “N1-cyclic amine-N5-substituted biguanide derivatives, methods of preparing the same and pharmaceutical composition comprising the same” (IMMUNOMET THERAPEUTICS INC., priority 2011, dated 2016)
